Results taken from patent US12059471B2, “Complex” (UNITED IMMUNITY, CO., LTD., priority 2020, dated 2024).
In the oligonucleotide strings, read from the 5' end, every base follows the letter of its sugar. An asterisk marks phosphorothioate; unmarked linkages are phosphodiester. Other units and linkages are bracketed, terminal groups are in braces. A string of capitals states the bases alone. {Chol-TEG} = cholesterol attached through a triethylene glycol linker; d = 2'-deoxy (DNA)

Experiment: Complexation evaluation by size exclusion chromatography (SEC/HPLC)
Type: physicochemical
Conditions: Chol-CpG 20 uM, SEC, UV 260 nm, PBS
Experimental: As complexation evaluation of the Chol-CpG (K3)/CHP nanogel complex sample prepared in Test Example 1-5, size exclusion chromatography (SEC) was carried out. The conditions were as follows. Column: G3000SWXL (Tosoh Corporation), 7.8 mm×150 mm, detector: UV (260 nm), column detection temperature: 35° C., injection amount: 20 uL, flow rate: 0.5 mL/min, eluent: PBS (pH: 7.4). Using PBS as an eluent, the eluate was detected at 260 nm, which was an absorption wavelength specific to CpG, which was a nucleic acid adjuvant.
As the complexation evaluation of the Chol-CpG (D35)/CHP nanogel complex sample prepared in Test Example 2-3, size exclusion chromatography (SEC) was carried out in the same manner as in Test Example 1-6.

Q: Which “complexed ratio with the nanogel” value (CHP nanogel 40 uM, molar ratio nanogel:Chol-CpG 2:1) does the source give for “Chol-CpG (D35): Cholesterol linked to 5′-end of D35 CpG oligonucleotide (SEQ ID NO 2) through a triethylene glycol linker (DNA {Chol-TEG}-dG*dGdTdGdCdAdTdCdGdAdTdGdCdAdGdGdGdG*dG*dG)” here?
A: Its value is ~100%.

Q: And the “complexed ratio with the nanogel” value (molar ratio nanogel:Chol-CpG 1:1)?
A: The value was “about 90%”.
